Measurements as given in patent publication US20240327418A1, “MULTI-TARGET INHIBITOR TARGETING HDAC AND NAD SYNTHESIS AND USE OF MULTI-TARGET INHIBITOR” (OCEAN UNIVERSITY OF CHINA, priority 2021, published 2024).
Where two headings read alike, the source gives them in different places.

Legend:
[1] = target: HDAC2 (Homo sapiens (Human), UniProt Q92769); assay: Inhibitory activity on HDAC2 (fluorescence enzyme assay); settings: read-out: IC50 HDAC2; mean of three independent experiments
[2] = tested on: cell death; assay: NMN reversal of cell death caused by compounds (FIG. 4); assay type: cell-based; settings: NMN is nicotinamide mononucleotide
[3] = tested on: acute myelogenous leukemia cells HL60; assay: GI50 and LC50 by NCI method, HL60; assay type: cell-based; settings: for CC50 / GI50: Homo sapiens, HL-60, 48 hours, Cell Titer-Blue
Experimental: (§1) The median growth inhibitory concentration (GI50) and median lethal concentration (LC50) were determined by NCI method. Leukemia cell strains MV4-11, HL60, PL21, KASUMI-1, MONO-MAC-1 and NB-4 were cultured in an Iscove's Modified Dulbecco Medium (IMDM) containing 10% fetal bovine serum, were inoculated into a 96-well cell culture plate at a density of 10,000 cells/100 μL and cultured overnight. 6 wells were selected as Tz wells, 0.125 mg/mL Cell Titer-Blue dye was added, and the cells were cultured for 4 hours and then the fluorescence intensity at […] (excitation wavelength/emission wavelength) was read. Compounds of different concentrations were added to the remaining wells, and a 100% control group was set. After 48 hours of cultivation, 0.125 mg/mL Cell Titer-Blue dye was added and the fluorescence intensity at […] was read after 4 hours. The fluorescence intensity of the dosing group was represented by Ti, the fluorescence intensity of the 100% control group was represented by C, and the fluorescence intensity before dosing was represented by Tz.
(§2) If Ti≥Tz, the formula [(Ti−Tz)/(C−Tz)]×100 was used.
(§3) If Ti<Tz, the formula [(Ti−Tz)/Tz]×100 was used.
(§4) The GI50 and LC50 values of some compounds on leukemia cell strains MV4-11, HL60, PL21, KASUMI-1, MONO-MAC-1 and NB-4 are shown in FIG. 1, Table 3, FIG. 2, and Table 4.

[4] = target: HDAC3 (Homo sapiens (Human), UniProt O15379); assay: Inhibitory activity on HDAC3 (fluorescence enzyme assay); settings: read-out: IC50 HDAC3; mean of three independent experiments
[5] = target: HDAC1 (Homo sapiens (Human), UniProt Q13547); assay: Inhibitory activity on HDAC1 (fluorescence enzyme assay); settings: read-out: IC50 HDAC1; mean of three independent experiments
[6] = tested on: leukemia cell line PL21; assay: GI50 and LC50 by NCI method, PL21; assay type: cell-based; settings: PL-21; 48 hours, Cell Titer-Blue
Experimental: as §1, §2, §3, §4

[7] = tested on: leukemia cell line NB-4; assay: GI50 and LC50 by NCI method, NB-4; assay type: cell-based; settings: 48 hours, Cell Titer-Blue; for GI50: read-out: NB4 GI50; for LC50 (median lethal concentration): read-out: NB4 LC50
Experimental: as §1, §2, §3, §4

[8] = tested on: acute myelogenous leukemia cells MV4-11; assay: GI50 and LC50 by NCI method, MV4-11; assay type: cell-based; settings: Homo sapiens, 48 hours, Cell Titer-Blue
Experimental: as §1, §2, §3, §4

[9] = tested on: leukemia cell line MONO-MAC-1; assay: GI50 and LC50 by NCI method, MONO-MAC-1; assay type: cell-based; settings: 48 hours, Cell Titer-Blue
Experimental: as §1, §2, §3, §4

[10] = target: NAMPT (Homo sapiens (Human), UniProt P43490); assay: Inhibitory activity on NAMPT; assay type: biochemical
[11] = tested on: leukemia cell line KASUMI-1; assay: GI50 and LC50 by NCI method, KASUMI-1; assay type: cell-based; settings: Homo sapiens, 48 hours, Cell Titer-Blue
Experimental: as §1, §2, §3, §4

[12] = tested on: MV4-11 tumor; assay: In vivo anti-leukemia activity, MV4-11 tumor bearing model; settings: MV4-11 tumor bearing nude mice; 4 mg/kg/d, day 23; panobinostat intraperitoneal
[13] = Pharmacokinetic properties in mice; assay type: in vivo; settings: for AUC(0-t) / Tmax / Cmax / half-life: mouse, plasma, po 20 mg/kg single dose; for Cmax: read-out: Cmax; for half-life: read-out: t½ (converted); for F: po 20 mg/kg vs iv 5 mg/kg
[14] = tested on: HCT116 tumor; assay: In vivo anti-colon cancer activity, HCT116 tumor bearing model; design: species or system nude mice
[15] = po 50 mg/kg, literature (BMC 2007, 21, 184-189); cited from earlier work
[16] = HCT116 tumor bearing nude mice, LEE17 orally 8 mg/kg/d

Chain of HDAC2 (Q92769 whole entry, species assumed): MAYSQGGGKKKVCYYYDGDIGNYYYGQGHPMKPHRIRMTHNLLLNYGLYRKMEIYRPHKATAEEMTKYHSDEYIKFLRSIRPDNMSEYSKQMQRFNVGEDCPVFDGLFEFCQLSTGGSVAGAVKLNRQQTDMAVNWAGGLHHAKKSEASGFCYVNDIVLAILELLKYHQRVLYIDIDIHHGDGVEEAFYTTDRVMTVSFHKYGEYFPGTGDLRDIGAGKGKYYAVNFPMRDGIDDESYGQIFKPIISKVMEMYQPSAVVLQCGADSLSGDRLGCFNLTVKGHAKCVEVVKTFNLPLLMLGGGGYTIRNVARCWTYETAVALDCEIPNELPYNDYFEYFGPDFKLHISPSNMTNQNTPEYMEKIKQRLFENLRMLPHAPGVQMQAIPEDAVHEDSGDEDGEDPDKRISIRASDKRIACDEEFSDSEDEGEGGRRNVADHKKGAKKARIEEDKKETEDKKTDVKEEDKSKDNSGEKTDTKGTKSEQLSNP
Chain of HDAC1 (Q13547 whole entry, species assumed): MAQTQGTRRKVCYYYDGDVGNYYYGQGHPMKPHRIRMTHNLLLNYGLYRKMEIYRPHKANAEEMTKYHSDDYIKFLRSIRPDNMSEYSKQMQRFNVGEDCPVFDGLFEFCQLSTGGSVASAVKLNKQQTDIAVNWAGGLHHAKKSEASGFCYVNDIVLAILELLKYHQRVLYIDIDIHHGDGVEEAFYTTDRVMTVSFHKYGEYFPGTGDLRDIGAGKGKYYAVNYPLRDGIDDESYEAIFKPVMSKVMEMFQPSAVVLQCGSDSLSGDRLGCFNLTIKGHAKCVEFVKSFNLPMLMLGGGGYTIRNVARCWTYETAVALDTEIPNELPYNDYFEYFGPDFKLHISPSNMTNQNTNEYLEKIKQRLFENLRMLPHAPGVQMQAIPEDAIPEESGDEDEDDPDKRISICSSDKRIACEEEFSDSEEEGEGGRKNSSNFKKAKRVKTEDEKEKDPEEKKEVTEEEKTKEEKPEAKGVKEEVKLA
Chain of HDAC3 (O15379 whole entry, species assumed): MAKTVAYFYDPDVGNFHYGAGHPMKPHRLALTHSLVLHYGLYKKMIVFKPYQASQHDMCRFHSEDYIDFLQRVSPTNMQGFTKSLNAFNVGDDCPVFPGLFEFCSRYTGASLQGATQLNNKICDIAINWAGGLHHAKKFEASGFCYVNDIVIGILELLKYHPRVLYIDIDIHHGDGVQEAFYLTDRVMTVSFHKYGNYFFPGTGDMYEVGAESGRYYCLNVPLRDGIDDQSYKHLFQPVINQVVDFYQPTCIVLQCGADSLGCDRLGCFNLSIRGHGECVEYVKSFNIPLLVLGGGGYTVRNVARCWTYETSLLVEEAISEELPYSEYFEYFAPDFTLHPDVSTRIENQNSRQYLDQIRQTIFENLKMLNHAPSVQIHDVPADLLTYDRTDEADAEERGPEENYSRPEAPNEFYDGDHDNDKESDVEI
Chain of HDAC3 (Q9Y618 395-489 partner, species assumed): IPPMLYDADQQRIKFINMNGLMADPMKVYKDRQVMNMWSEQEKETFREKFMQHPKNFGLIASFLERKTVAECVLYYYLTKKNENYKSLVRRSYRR
Chain of NAMPT (P43490 whole entry, species assumed): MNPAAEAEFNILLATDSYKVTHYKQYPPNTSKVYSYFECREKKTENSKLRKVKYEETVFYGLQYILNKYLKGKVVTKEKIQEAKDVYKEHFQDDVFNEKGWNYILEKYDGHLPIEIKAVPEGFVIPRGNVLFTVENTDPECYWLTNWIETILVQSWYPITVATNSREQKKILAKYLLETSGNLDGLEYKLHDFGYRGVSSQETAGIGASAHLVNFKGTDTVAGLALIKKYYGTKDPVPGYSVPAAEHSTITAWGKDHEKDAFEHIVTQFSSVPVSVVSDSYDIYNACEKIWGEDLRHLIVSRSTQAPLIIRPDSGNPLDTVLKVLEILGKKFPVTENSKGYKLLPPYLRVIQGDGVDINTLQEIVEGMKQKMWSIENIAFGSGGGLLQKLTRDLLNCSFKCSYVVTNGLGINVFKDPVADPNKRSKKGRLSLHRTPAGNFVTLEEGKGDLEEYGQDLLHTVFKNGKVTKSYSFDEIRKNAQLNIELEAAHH

With CCCNNC(=O)c1ccc(CNC(=O)/C=C/c2cccnc2)cc1 [LEE12, (E)-N-(4-(2-propylhydrazino-1-carbonyl)benzyl)-3-(pyridin-3-yl) acrylamide] the IC50 [1] was 141 nM, the “effect of NMN on cell death caused by the compound” value [2] was “reversal effect” and the “LC50 values in p53-null cell strain HL60 (in words)” value [3] was “nanomolar level”. The CC50 [3] was 591 nM, the GI50 [3] was 42.1 nM and the IC50 [4] was 3.12 nM. The IC50 [5] was 25.1 nM, the GI50 [6] was 259 nM and the LC50 (median lethal concentration) [6] was 3820 nM. It also gave a GI50 [7] of 22.8 nM, an LC50 (median lethal concentration) [7] of 2300 nM and a GI50 [8] of 38.3 nM. The LC50 (median lethal concentration) [8] was 218 nM, the CC50 [9] was 9030 nM and the GI50 [9] was 73.7 nM. For the same compound, the “inhibitory activity against NAMPT (in words)” value [10] was “micromolar level”, the IC50 ([10]; mean of three independent experiments) was 6570 nM and the GI50 [11] was 13.5 nM. It also gave an LC50 [11] of 285 nM.

With CCCNNC(=O)c1ccc(CNC(=O)c2cc3ccccc3o2)cc1 [LEE16, N-(4-(2-propylhydrazino-1-carbonyl)benzyl)benzofuran-2-carboxyamide] the IC50 [1] was 18.5 nM, the CC50 [3] was over 10000 nM and the GI50 [3] was 75.2 nM. For the same compound, the IC50 [4] was 0.435 nM, the “Relative tumor proliferation rate (T/C %)” value [12] was 25.4% and the “Tumor inhibitory rate (TGI %)” value [12] was 78.4%. The IC50 [5] was 3.01 nM, the AUC(0-t) [13] was 129000 ng·h/mL and the Tmax [13] was 0.5 h. The Cmax [13] was 34400 ng/mL, the half-life [13] was 6.03 h and the F [13] was 111%. The GI50 [6] was 34.3 nM, the LC50 (median lethal concentration) [6] was over 10000 nM and the GI50 [7] was 42.3 nM. For the same compound, the LC50 (median lethal concentration) [7] was over 10000 nM, the GI50 [8] was 30 nM and the LC50 (median lethal concentration) [8] was 57.8 nM. For the same compound, the CC50 [9] was over 10000 nM, the GI50 [9] was 25.3 nM and the GI50 [11] was 15.3 nM. It also gave an LC50 [11] of 5360 nM.

Compound CCCNNC(=O)c1ccc(CNC(=O)c2cc3ccccc3s2)cc1 [LEE17, N-(4-(2-propylhydrazino-1-carbonyl)benzyl)benzo[b]thiophene-2-carboxyamide] has an IC50 [1] of 16.9 nM, a CC50 [3] of over 10000 nM and a GI50 [3] of 58.7 nM. The IC50 [4] was 0.551 nM, the IC50 [5] was 3.79 nM and the AUC(0-t) [13] was 27600 ng·h/mL. For the same compound, the Tmax [13] was 0.25 h, the Cmax [13] was 9460 ng/mL and the half-life [13] was 4.46 h. For the same compound, the F [13] was 64.6%, the “change in the weight of the nude mice at the end of the experiment (in words)” value ([14]; 8 mg/kg/d) was “no significant change” and the “Relative tumor proliferation rate (T/C %)” value [14, 16] was 14.8%. The “Tumor inhibitory rate (TGI %)” value [14, 16] was 85.5%, the “Weight of nude mice at the end of the experiment” value [14, 16] was 19.04 ± 1.31 g and the GI50 [6] was 74.3 nM. The LC50 (median lethal concentration) [6] was over 10000 nM, the GI50 [7] was 51.2 nM and the LC50 (median lethal concentration) [7] was over 10000 nM. The GI50 [8] was 20.3 nM, the LC50 (median lethal concentration) [8] was 57.1 nM and the CC50 [9] was over 10000 nM. It also gave a GI50 [9] of 33.2 nM, a GI50 [11] of 25.3 nM and an LC50 [11] of 7320 nM.

For CCCNNC(=O)c1ccc(CNC(=O)c2cc3cnccc3[nH]2)cc1 [LEE18, N-(4-(2-propylhydrazin-1-carbonyl)benzyl)-1H-pyrrolo[3,2-c]pyridin-2-carboxamide], the IC50 [1] was 37.8 nM, the “effect of NMN on cell death caused by the compound” value [2] was “reversal effect” and the “LC50 values in p53-null cell strain HL60 (in words)” value [3] was “nanomolar level”. For the same compound, the CC50 [3] was 649 nM, the GI50 [3] was 51.2 nM and the IC50 [4] was 0.71 nM. It also gave a GI50 [6] of 110 nM, an LC50 (median lethal concentration) [6] of 2720 nM and a GI50 [7] of 16.5 nM. The LC50 (median lethal concentration) [7] was 1560 nM, the GI50 [8] was 23.6 nM and the LC50 (median lethal concentration) [8] was 58.1 nM. It also gave a CC50 [9] of 8680 nM, a GI50 [9] of 65.7 nM and a GI50 [11] of 21.4 nM. For the same compound, the LC50 [11] was 503 nM.

In the case of Cc1[nH]c2ccccc2c1CCNCc1ccc(/C=C/C(=O)NO)cc1 [Panobinostat], the “Relative tumor proliferation rate (T/C %)” value [12] is given as 72.9%, the “Tumor inhibitory rate (TGI %)” value [12] is given as 18.3% and the AUClast [15] is given as 126 ng·h/mL. The Cmax [15] was 116 ng/mL, the F [15] was 4.62% and the t½ [15] was 2.9 h.
